From article PMC6278073 (BMC Pharmacology & Toxicology, 2018)

Assays:
in vivo [1] = experiment: in vivo
Description: PK studies in animals were approved by the Institutional Animal Care and Use Committee (IACUC) of the institution performing the study. […] Twenty-four animals were used for each route of administration and both the genders were randomly included (n = 3 mice per time point). The intravenous dose was administered via tail vein injection at an injection volume of 5 ml/kg, and the oral dose was given via gavage at a dose volume of 10 ml/kg. […] Mice were sacrificed with carbon dioxide asphyxiation following bleeds. Plasma was prepared and stored at -80 °C until bioanalysis.
(§1) Sample preparation and bioanalysis was performed at the University of Cincinnati. For extraction, 50 μl of plasma samples were transferred to glass tubes. […] The extraction solvent was separated by centrifugation. […] Collected fractions were evaporated using centrifugal evaporator.
(§2) Analysis of extracted samples was performed by an LC-MS/MS method. […] The column was Synergi™ 4 μm Polar-RP 50 × 2.00 mm (Phenomenex) run at a flow rate of 400 μl/min with an injection volume of 5 μl (partial loop). […] The analysis was performed using a Thermo Scientific LTQ-FT™ mass spectrometer operated in positive-ion electrospray mode.
(§3) Pharmacokinetic analysis was performed on either mean plasma concentration-time data (mouse) or on the individual plasma concentration-time data (prairie dog, guinea pig, and monkey) employing Phoenix® WinNonlin 6.4®. PK parameters such as maximum plasma concentration (Cmax), the time corresponding to Cmax (Tmax), terminal half-life (T1/2), the volume of distribution (Vd) and clearance (CL) were calculated by non-compartmental methods and presented as the arithmetic mean ± standard deviation (SD). The bioavailability (F) was estimated by dividing the mean dose-normalized area under the plasma concentration-time curve from time 0 extrapolated to infinity (AUCinf) upon oral dose by the mean dose-normalized AUCinf upon intravenous dose.

in vivo [2] = experiment: in vivo; remark: listed apart in the source
Description: (§4) Prairie dog PK studies were performed at Centers for Disease Control and Prevention (CDC, Atlanta). […] The animals were collected in Lubbock, TX. All animals are given full physical examination by a veterinarian prior to being shipped to CDC. […] For each blood sample collection, prairie dogs were anesthetized with 5% isoflurane gas and maintained with 1–3% isoflurane during sample collection through peripheral veins. Plasma was prepared and stored at -70 °C until bioanalysis.
as §1, §2, §3

in vivo [3] = conditions: male, Hartley, guinea pig, iv, 10 mg/kg
Description: Male Hartley guinea pigs (450–650 g) were procured from Charles River. Nine animals were used, three (n = 3) for each route of administration. The intravenous dose was given via jugular vein cannula, and the oral dose was given via gavage. […] Plasma was prepared and stored at -80 °C until bioanalysis.
as §1, §2, §3

in vivo [4] = experiment: in vivo; remark: listed apart in the source
Description: Six Animals (3.5 kg) were procured from Charles River, three (n = 3) for each route of administration. Animals were fasted overnight before dosing and at least 1 h following dose administration. The intravenous dose was given via a saphenous vein at an injection volume of 1 ml/kg, and oral dosing was performed via gavage at a dose volume of 5 ml/kg. […] Plasma was prepared and stored at-70 °C until bioanalysis.
as §1, §2, §3

[5] = prairie dogs
Description: as §4
The formulation used in previously reported PK studies have varied based on the animal model. […] For their intravenous PK study in dogs, Solutol® HS 15 was used instead of cremophor [13].

[6] = nilotinib, 7 mg twice-daily, 20 mg once-daily, 20 mg twice-daily for 7 days, prairie dogs
Description: as §4

plasma protein = conditions: nilotinib, all the preclinical species and humans; cited from earlier work
[7] = nilotinib, cited from earlier work
[8] = nilotinib; cited from earlier work
[9] = both, C57BL/6, mouse, in vivo, iv, 10 mg/kg
[10] = both, C57BL/6, mouse, in vivo, po, 10 mg/kg
[11] = male, dog, in vivo, iv, 10 mg/kg
[12] = male, dog, in vivo, po, 30 mg/kg
[13] = male, dog, in vivo, po, 10 mg/kg
[14] = male, dog, in vivo, po, 20 mg/kg
[15] = nilotinib, IV 10 mg/kg, prairie dogs, mean ± SD
[16] = cynomolgus monkey, in vivo, iv, 10 mg/kg
[17] = cynomolgus monkey, in vivo, po, 10 mg/kg

Cc1ccc(NC(=O)c2ccc(CN3CCN(C)CC3)cc2)cc1Nc1nccc(-c2cccnc2)n1 [imatinib]
AUC(0-inf) (in vivo [1]; [9]): 4520 ng·h/mL
AUC(0-inf) (in vivo [1]; [10]): 4850 ng·h/mL
Tmax (in vivo [1]; [10]): 1 h
Cmax (in vivo [1]; [10]): 1470 ng/mL
bioavailability (in vivo [2]; male, dog, in vivo): ~22%
AUC(0-inf) (in vivo [2]; [11]): 12600 ng·h/mL
AUC(0-inf) (in vivo [2]; [12]): 8090 ± 3010 ng·h/mL
Cmax (in vivo [2]; [12]): 1680 ± 834 ng/mL
Tmax (in vivo [2]; [12]): 3 ± 1.15 h

Cc1cn(-c2cc(NC(=O)c3ccc(C)c(Nc4nccc(-c5cccnc5)n4)c3)cc(C(F)(F)F)c2)cn1 [nilotinib]
AUC(0-inf) (in vivo [1]; [9]): 76300 ng·h/mL
MRT (in vivo [1]; [9]): 2.21 h
Vd (in vivo [1]; [9]): 0.29 L/kg
clearance (in vivo [1]; [9]): 2.19 mL/min/kg
half-life (in vivo [1]; [9]): 1.81 h
AUC(0-inf) (in vivo [1]; [10]): 38400 ng·h/mL
Tmax (in vivo [1]; [10]): 0.5 h
half-life (in vivo [1]; [10]): 2.94 h
bioavailability (in vivo [1]; both, C57BL/6, mouse, in vivo, po, 10 mg/kg, Bioavailability, nilotinib, oral 10 mg/kg in NMP/PEG 300 vs IV 10 mg/kg, C57BL/6 mice): 50%
Cmax (in vivo [1]; both, C57BL/6, mouse, in vivo, po, 10 mg/kg, nilotinib, oral 10 mg/kg in NMP/PEG 300, C57BL/6 mice): 18000 ng/mL
Cmax (in vivo [1]; both, C57BL/6, mouse, in vivo, po, 10 mg/kg, nilotinib, oral 10 mg/kg, C57BL/6 mice): ~18000 ng/mL
Time to Cmax after dosing (in vivo [1]; nilotinib, oral 10 mg/kg, C57BL/6 mice): 30 min
bioavailability (in vivo [2]; male, dog, in vivo, nilotinib, oral 20 mg/kg in NMP/PEG 300 vs IV 10 mg/kg, prairie dogs): ~24%
AUC(0-inf) (in vivo [2]; [11]): 57600 ng·h/mL
MRT (in vivo [2]; [11]): 6.7 ± 2.9 h
Vd (in vivo [2]; [11]): 1.16 ± 0.326 L/kg
clearance (in vivo [2]; [11]): 3.17 mL/min/kg
half-life (in vivo [2]; male, dog, in vivo, iv, 10 mg/kg, T1/2, nilotinib, IV 10 mg/kg, prairie dogs, mean ± SD): 6.5 h
AUC(0-inf) (in vivo [2]; [13]): 9330 ± 3630 ng·h/mL
Cmax (in vivo [2]; [13]): 951 ± 255 ng/mL
Tmax (in vivo [2]; [13]): 5.6 ± 2.19 h
half-life (in vivo [2]; male, dog, in vivo, po, 10 mg/kg, Apparent T1/2, nilotinib, oral 10 mg/kg in Avicel/HPMC suspension, prairie dogs, mean ± SD): 3.5 ± 0.6 h
bioavailability (in vivo [2]; male, dog, in vivo, po, 10 mg/kg, nilotinib, oral 10 mg/kg in Avicel/HPMC suspension vs IV 10 mg/kg, prairie dogs): 16%
AUC(0-inf) (in vivo [2]; [14]): 28000 ng·h/mL
Cmax (in vivo [2]; [14]): 1670 ± 315 ng/mL
Tmax (in vivo [2]; [14]): 7.2 ± 1.79 h
half-life (in vivo [2]; male, dog, in vivo, po, 20 mg/kg, Apparent T1/2, nilotinib, oral 20 mg/kg in NMP/PEG 300, prairie dogs, mean ± SD): 7.5 h
bioavailability (in vivo [2]; male, dog, in vivo, po, 20 mg/kg, nilotinib, oral 20 mg/kg in NMP/PEG 300 vs IV 10 mg/kg, prairie dogs): 24%
AUC(0-inf) (in vivo [2]; [15]): 57,551 ± 15,508 ng.hr./ml
CL (in vivo [2]; [15]): 3.17 ± 1.28 mL/min/kg
T1/2 (in vivo [2]; nilotinib, IV 10 mg/kg, prairie dogs, mean ± SD, 10 mg/kg): 6.51 ± 2.97 h
Apparent T1/2 (in vivo [2]; nilotinib, oral 20 mg/kg in NMP/PEG 300, prairie dogs, mean ± SD, 20 mg/kg): 7.57 ± 2.01 h
Vd (in vivo [3]): 37.6 L/kg
clearance (in vivo [3]): 198 mL/min/kg
half-life (in vivo [3]): 2.1 h
AUC(0-inf) (in vivo [4]; [16]): 16100 ng·h/mL
MRT (in vivo [4]; [16]): 8.9 ± 1.1 h
Vd (in vivo [4]; [16]): 5.74 ± 1.78 L/kg
clearance (in vivo [4]; [16]): 10.7 mL/min/kg
half-life (in vivo [4]; cynomolgus monkey, in vivo, iv, 10 mg/kg, T1/2, nilotinib, IV 10 mg/kg, Cynomolgus monkeys, mean ± SD): 7.8 h
AUC(0-inf) (in vivo [4]; [17]): 2100 ± 468 ng·h/mL
Cmax (in vivo [4]; [17]): 410 ± 46 ng/mL
Tmax (in vivo [4]; [17]): 1.67 ± 0.58 h
bioavailability (in vivo [4]; [17]): 13%
half-life (in vivo [4]; cynomolgus monkey, in vivo, po, 10 mg/kg, Apparent T1/2, nilotinib, oral 10 mg/kg in Avicel/HPMC, Cynomolgus monkeys, mean ± SD): 5.2 h
T1/2 (in vivo [4]; nilotinib, IV 10 mg/kg, Cynomolgus monkeys, mean ± SD): 7.79 ± 0.71 h
Apparent T1/2 (in vivo [4]; nilotinib, oral 10 mg/kg in Avicel/HPMC, Cynomolgus monkeys, mean ± SD): 5.16 ± 0.52 h
Tolerability in multi-dose studies ([5]; nilotinib/NMP (20 mg/ml) in PEG 300 (1:10), oral, weight loss, severe diarrhea, elevated liver enzymes also in vehicle-treated animals, data not shown): not tolerated
Tolerability in multiple dose PK studies ([5]; oral suspension of Avicel-RC 591 and HPMC): tolerable
Deviation of predicted peak and trough levels on Days 1 and 7 from reported levels [6]: ≤ 25%
Protein binding (plasma protein): greater than 97%
Solubility in an acidic environment ([7]; acidic environment): soluble
Solubility at pH above 4.5 ([7]; pH above 4.5): poorly soluble
Water solubility [7]: low
Biopharmaceutics Classification System class [8]: class II/IV
Permeability [8]: poor to moderate
